Assay results: PubChem BioAssay AID1259411 (Chemical Carcinogenesis Research Information System (CCRIS), 2018)
Active and inactive are the calls of the source. How the calls were made is not given here.

System: rodent carcinogenicity bioassays, tumor incidence
Assay: CCRIS carcinogenicity studies
Procedure, shortened: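 NCI-built, expert-reviewed records of carcinogenicity and related test outcomes (mutagenicity, tumor promotion/inhibition) compiled from published and report sources, historical span 1985-2011, not updated.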

CCN(N=O)C(=O)NCCO
carcinogen call (Species: RAT, Strain/Sex: F344/FEMALE, Route: INTRAVESICULAR, Dose: 0, 3.6 MG 2/WK FOR 30 WK (STUDY DURATION: LIFETIME), Tumor Site: Type of Lesion: BLADDER: TUMOR, BRAIN: TUMOR): active; positive
carcinogen call (Species: RAT, Strain/Sex: F344/FEMALE, Route: ORAL, Dose: 0, 37, 74 MG/L IN DRINKING WATER 5 D/WK FOR 30 WK (STUDY DURATION: LIFETIME), Dose: 0, 37, 74 MG/L IN DRINKING WATER 5 D/WK FOR 30 WK (STUDY DURATION: LIFETIME), Tumor Site: Type of Lesion: BLADDER: TUMOR, MAMMARY GLAND: TUMOR, UTERUS: TUMOR, NERVOUS SYSTEM: TUMOR, SKIN: TUMOR, MOUTH: TUMOR, Tumor Site: Type of Lesion: BLADDER: TUMOR, MAMMARY GLAND: TUMOR, UTERUS: TUMOR, NERVOUS SYSTEM: TUMOR, SKIN: TUMOR, MOUTH: TUMOR): active; positive
carcinogen call (Species: RAT, Strain/Sex: F344/MALE, Route: GAVAGE, Dose: 0, 3.6 MG IN 0.2 ML ETHYL ACETATE/CORN OIL (1:1) 2/WK FOR 31 WK (TOTAL DOSE: 223 MG) (STUDY DURATION: 80 WK), Tumor Site: Type of Lesion: LUNG: CARCINOMA, ADENOMA, BRAIN: TUMORS, THYROID: CARCINOMA OR ADENOMA, PERITONEUM: MESOTHELIOMA, ZYMBAL GLAND: CARCINOM, Tumor Site: Type of Lesion: LUNG: CARCINOMA, ADENOMA, BRAIN: TUMORS, THYROID: CARCINOMA OR ADENOMA, PERITONEUM: MESOTHELIOMA, ZYMBAL GLAND: CARCINOM): active; positive
carcinogen call (Species: RAT, Strain/Sex: F344/MALE, Route: ORAL, Dose: 0, 37, 74 MG/L IN DRINKING WATER 5 D/WK FOR 30 WK (STUDY DURATION: LIFETIME), Dose: 0, 37, 74 MG/L IN DRINKING WATER 5 D/WK FOR 30 WK (STUDY DURATION: LIFETIME), Tumor Site: Type of Lesion: LUNG: TUMOR, BLADDER: TUMOR, MESOTHELIUM: TUMOR, NERVOUS SYSTEM: TUMOR, SKIN: TUMOR, Tumor Site: Type of Lesion: LUNG: TUMOR, BLADDER: TUMOR, MESOTHELIUM: TUMOR, NERVOUS SYSTEM: TUMOR, SKIN: TUMOR): active; positive

O=C(O)c1nn(Cc2ccc(Cl)cc2Cl)c2ccccc12
carcinogen call (Species: RAT, Strain/Sex: SPRAGUE-DAWLEY/FEMALE, Route: ORAL, Dose: 0, 20, 60, 180 MG/KG/D IN DIET FOR 2 YR (STUDY DURATION: 2 YR), Dose: 0, 20, 60, 180 MG/KG/D IN DIET FOR 2 YR (STUDY DURATION: 2 YR)): inactive; negative
carcinogen call (Species: RAT, Strain/Sex: SPRAGUE-DAWLEY/MALE, Route: ORAL, Dose: 0, 20, 60, 180 MG/KG/D IN DIET FOR 2 YR (STUDY DURATION: 2 YR), Dose: 0, 20, 60, 180 MG/KG/D IN DIET FOR 2 YR (STUDY DURATION: 2 YR)): inactive; negative

CC(COc1ccc(C(C)(C)C)cc1)OS(=O)OCCCl (stereo unspecified)
carcinogen call (Species: DOG, Strain/Sex: MONGREL/MALE,FEMALE, Route: ORAL, Dose: 0, 500, 828-1420 PPM IN DIET FOR 3.5 YR, Dose: 0, 500, 828-1420 PPM IN DIET FOR 3.5 YR, Tumor Site: Type of Lesion: BILE DUCT: ADENOCARCINOMA, GALL BLADDER: ADENOCARCINOMA): active; positive
carcinogen call (Species: MOUSE, Strain/Sex: B6C3F1/MALE,FEMALE, Route: GAVAGE/ORAL, Dose: 464 MG/KG FROM D 7-28 OF LIFE THEN 1112 PPM IN DIET, Tumor Site: Type of Lesion: LIVER: HEPATOMA): active; positive
carcinogen call (Species: RAT, Strain/Sex: WISTAR/MALE,FEMALE, Route: ORAL, Dose: 500, 1580, 5000 PPM IN DIET FOR 2 YR, Dose: 500, 1580, 5000 PPM IN DIET FOR 2 YR, Tumor Site: Type of Lesion: LIVER: HEPATOMA, CHOLANGIOMA): active; positive

Cc1cc(C)nc(NS(=O)(=O)c2ccc(N)cc2)n1
carcinogen call (Species: RAT, Strain/Sex: F344/FEMALE, Route: ORAL, TRANS-PLACENTAL, Dose: 0, 10, 40, 600 1200, 2400 PPM IN DIET FOR 24 MO (PARENTS FED 0; 10; 600; 1200; 2400 PPM RESPECTIVELY IN DIET) (STUDY DUR, Dose: 0, 10, 40, 600 1200, 2400 PPM IN DIET FOR 24 MO (PARENTS FED 0; 10; 600; 1200; 2400 PPM RESPECTIVELY IN DIET) (STUDY DUR, Tumor Site: Type of Lesion: THYROID GLAND: FOLLICULAR CELL ADENOCARCINOMA): active; positive
carcinogen call (Species: RAT, Strain/Sex: F344/MALE, Route: ORAL, TRANS-PLACENTAL, Dose: 0, 10, 40, 600 1200, 2400 PPM IN DIET FOR 24 MO (PARENTS FED 0; 10; 600; 1200; 2400 PPM RESPECTIVELY IN DIET) (STUDY DUR, Dose: 0, 10, 40, 600 1200, 2400 PPM IN DIET FOR 24 MO (PARENTS FED 0; 10; 600; 1200; 2400 PPM RESPECTIVELY IN DIET) (STUDY DUR, Tumor Site: Type of Lesion: THYROID GLAND: FOLLICULAR CELL ADENOCARCINOMA): active; positive
